The text below walks through data of patent US7488748B2, “3,6-Disubstituted azabicyclo hexane derivatives as muscarinic receptor antagonists” (Ranbaxy Laboratories Limited, priority 2003, dated 2009).

In one experiment the target is T1, M3 muscarinic receptor (Rattus norvegicus, UniProt P08483).
T1 construct: from tissue; host or cells: rat submandibular gland membrane homogenate
Description: Radioligand binding assay, [3H]-N-methylscopolamine, rat submandibular gland membranes. The following applies: [3H]NMS, Ki by Cheng & Prusoff; for Ki: read-out: Receptor Binding Assay pKi M3 (converted). How it is done: (§1) The affinity of test compounds for M2 and M3 muscarinic receptor subtypes was determined by [^3H]—N-methylscopolamine binding studies using rat heart and submandibular gland respectively as described by Moriya et al., (Life Sci., 1999,64(25):2351-2358) with minor modifications.
(§2) Membrane preparation: Submandibular glands and heart were isolated and placed in ice cold homogenizing buffer (HEPES 20 mM, 10 mM EDTA, pH 7.4) immediately after sacrifice. The tissues were homogenized in 10 volumes of homogenizing buffer and the homogenate was filtered through two layers of wet gauze and filtrate was centrifuged at 500 g for 10 min. The supernatant was subsequently centrifuged at 40,000 g for 20 min. The pellet thus obtained was resuspended in same volume of assay buffer (HEPES 20 mM, EDTA 5 mM, pH 7.4) and were stored at −70° C. until the time of assay.
(§3) Ligand binding assay The compounds were dissolved and diluted in DMSO. The membrane homogenates (150-250 μg protein) were incubated in 250 μl of assay buffer (HEPES 20 mM, pH 7.4) at 24-25° C. for 3 h. Non-specific binding was determined in the-presence of 1 μM atropine. The incubation was terminated by vacuum filtration over GF/B fiber filters(Wallac). The filters were then washed with ice cold 50 mM Tris HCl buffer (pH 7.4). The filter mats were dried and bound radioactivity retained on filters was counted. The IC50 & Kd were estimated by using the non-linear curve fitting program using G Pad Prism software. The value of inhibition constant Ki was calculated from competitive binding studies by using Cheng & Prusoff equation (Biochem Pharmacol, 1973,22: 3099-3108), Ki=IC50/(1+L/Kd), where L is the concentration of [^3H]NMS used in the particular experiment.

The next experiment addresses T2, M2 muscarinic receptor (Rattus norvegicus, UniProt P10980).
T2 construct: from tissue; host or cells: rat heart membrane homogenate
T2 sequence (P10980 1-466): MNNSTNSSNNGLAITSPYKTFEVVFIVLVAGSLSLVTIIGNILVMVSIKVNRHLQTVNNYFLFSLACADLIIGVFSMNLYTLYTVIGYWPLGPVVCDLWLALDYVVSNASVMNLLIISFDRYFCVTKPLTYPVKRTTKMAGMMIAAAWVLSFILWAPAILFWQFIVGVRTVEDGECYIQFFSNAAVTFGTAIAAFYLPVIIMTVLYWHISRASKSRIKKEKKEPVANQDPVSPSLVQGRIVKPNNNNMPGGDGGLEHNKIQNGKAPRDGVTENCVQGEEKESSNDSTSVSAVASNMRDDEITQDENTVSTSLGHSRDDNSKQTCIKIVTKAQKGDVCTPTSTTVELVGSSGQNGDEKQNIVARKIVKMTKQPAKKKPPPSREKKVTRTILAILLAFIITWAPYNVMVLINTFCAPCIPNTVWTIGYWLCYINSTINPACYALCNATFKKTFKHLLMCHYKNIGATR
Description: Radioligand binding assay, [3H]-N-methylscopolamine, rat heart membranes. The conditions noted are these: [3H]NMS, Ki by Cheng & Prusoff; for Ki: read-out: Receptor Binding Assay pKi M2 (converted). As for the experimental part: as §1, §2, §3

Another experiment deals with isolated rat bladder. In words: Functional experiments using isolated rat bladder (carbachol-induced contraction). The following applies: isolated rat bladder strips, carbachol concentration response curve, antagonist added 20 min prior. As for the experimental part: Functional Experiments Using Isolated Rat Bladder:
Animals were euthanized by overdose of urethane and whole bladder was isolated and removed rapidly and placed in ice cold Tyrode buffer with the following composition (mMol/L) NaCl 137; KCl 2.7; CaCl2 1.8; MgCl2 0.1; NaHCO3 11.9; NaH2PO4 0.4; Glucose 5:55 and continuously gassed with 95% O2 and 5% CO2.
The bladder was cut into longitudinal strips (3 mm wide and 5-6 mm long) and mounted in 10 ml organ baths at 30° C., with one end connected to the base of the tissue holder and the other end connected to a polygraph through a force displacement transducer. Each tissue was maintained at a constant basal tension of 2 g and allowed to equilibrate for 1 hour during which the PSS was changed every 15 min. At the end of equilibration period the stabilization of the tissue contractile response was assessed with 1 μmol/L of Carbachol consecutively for 2-3 times. Subsequently a cumulative concentration response curve to carbachol (10-9 mol/L to 3×10^−5 mol/L) was obtained. After several washes, once the baseline was achieved, cumulative concentration response curve was obtained in presence of NCE (NCE added 20 min. prior to the second CRC).
The contractile results were expressed as % of control E max. ED50 values were calculated by fitting a non-linear regression curve (Graph Pad Prism). PKB values were calculated by the formula pKB=−log [(molar concentration of antagonist/(dose ratio−1))]
dose ratio=ED50 in the presence of antagonist/ED50 in the absence of antagonist.

T1 sequence (P08483 whole entry): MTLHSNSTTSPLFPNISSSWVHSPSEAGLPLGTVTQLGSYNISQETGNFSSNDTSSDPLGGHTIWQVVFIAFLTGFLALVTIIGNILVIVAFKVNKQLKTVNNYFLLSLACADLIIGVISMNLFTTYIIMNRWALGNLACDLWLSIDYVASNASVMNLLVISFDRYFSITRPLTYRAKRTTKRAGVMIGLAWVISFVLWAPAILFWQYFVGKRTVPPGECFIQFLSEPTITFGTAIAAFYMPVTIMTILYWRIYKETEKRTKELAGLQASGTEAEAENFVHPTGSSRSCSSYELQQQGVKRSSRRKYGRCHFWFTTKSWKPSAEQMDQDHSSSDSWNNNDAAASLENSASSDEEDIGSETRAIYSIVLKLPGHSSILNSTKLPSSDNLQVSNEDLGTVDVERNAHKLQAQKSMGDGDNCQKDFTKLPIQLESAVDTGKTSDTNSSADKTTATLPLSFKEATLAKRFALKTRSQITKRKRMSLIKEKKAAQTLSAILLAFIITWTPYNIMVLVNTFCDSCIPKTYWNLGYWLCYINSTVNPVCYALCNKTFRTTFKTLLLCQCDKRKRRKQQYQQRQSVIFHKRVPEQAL

Turning to `CC(C)=CCCN1CC2C(C1)C2N(C)C(=O)C(O)(c1ccccc1)C1CCCC1` (stereo not drawn) [Compound No. 125, N-methyl-N-(1α, 5α, 6α)-N-[3-(4-methyl-3-pentenyl)-3-azabicyclo[3.1.0]-hex-6-yl]-2-cyclopentyl-2-hydroxy-2-phenylacetamide], the Ki is 26.3 nM on M3 muscarinic receptor and 24.5 nM on M2 muscarinic receptor. For the same compound, the Functional Assay pKB in the experiment with isolated rat bladder was 8.36.
The like results for `O=C(NC1C2CN(Cc3ccccc3)CC21)C(c1ccccc1)C1CCCCC1` (stereo not drawn) [Compound No. 116, (1α, 5α, 6α)-N-[3-benzyl-3-azabicyclo[3.1.0]-hex-6-yl]-2-cyclohexyl-1-2-phenylacetamide] were, in that order, greater than 1000 nM, greater than 1000 nM and 6.03.
For the compound `O=C(NC1C2CN(Cc3ccccc3)CC21)C(O)c1ccccc1` (stereo not drawn) [Compound No. 117, (1α, 5α, 6α)-N-[3-benzyl-3-azabicyclo[3.1.0]-hex-6-yl]-2-hydroxy-2-phenylacetamide], the Ki on M3 muscarinic receptor and at M2 muscarinic receptor was greater than 1000 nM in each case. The compound further yielded a Functional Assay pKB in the experiment with isolated rat bladder of 5.08.
Regarding `CC(c1ccccc1)N1C[C@@H]2[C@H](C1)[C@H]2NC(=O)C(O)(c1ccccc1)C1CCCCCC1` (stereo partly drawn) [Compound No. 81, (1α, 5α, 6α)-N-[3-(1-phenylethyl)-3-azabicyclo[3.1.0]-hex-6-yl]-2-hydroxy-2-cycloheptyl-2-phenylacetamide], the “Receptor Binding Assay pKi M3” value at M3 muscarinic receptor is on record as 8.62 -log M (pKi, unitless). For the same compound, at M2 muscarinic receptor, the “Receptor Binding Assay pKi M2” value amounted to 7.27. The compound also displayed a Functional Assay pKB in the experiment on isolated rat bladder of 7.89.
With `Cc1ccc(C(C)N2CC3C(C2)C3NC(=O)C(O)(c2ccccc2)C2CCCC2)cc1` (stereo not drawn) [Compound No. 43, (1α, 5α, 6α)-N-[3-[1-(4-methylphenyl)ethyl]-3-azabicyclo[3.1.0]hex-6-yl]-2-hydroxy-2-cyclopentyl-2-phenylacetamide], the Ki was 58.9 nM on M3 muscarinic receptor and 1230 nM on M2 muscarinic receptor. The compound also returned a Functional Assay pKB in the experiment on isolated rat bladder of 6.86.
The like results for `O=C(NC1C2CN(CCCc3ccccc3)CC21)C(O)(c1ccccc1)C1CCCC1` (stereo not drawn) [Compound No. 19, (1α, 5α, 6α)-N-[3-(3-phenylpropyl)-3-azabicyclo[3.1.0]hex-6-yl]-2-hydroxy-2-cyclopentyl-2-phenylacetamide] were, in that order, 776 nM, 2630 nM and 7.52.
As to `O=C(NC1C2CN(Cc3cccs3)CC21)C(O)(c1ccccc1)C1CCCC1` (stereo not drawn) [Compound No. 3, (1α, 5α, 6α)-N-[3-(2-thienylmethyl)-3-azabicyclo[3.1.0]hex-6-yl]-2-hydroxy-2-cyclopentyl-2-phenylacetamide], the results for the Ki at M3 muscarinic receptor and at M2 muscarinic receptor were 525 nM and 3980 nM, respectively. The Functional Assay pKB in the experiment with isolated rat bladder came out at 8.04.
On the same counts, the results for `Cc1ccc(CCN2CC3C(C2)C3NC(=O)C(O)(c2ccccc2)C2CCCC2)cc1C` (stereo not drawn) [Compound No. 50] are 43.7 nM, 813 nM and 7.48.
On the same counts, the results for `CC(c1ccccc1)N1CC2C(C1)C2NC(=O)C(O)(c1ccccc1)C1CCCCC1` (stereo not drawn) [Compound No. 58, (1α, 5α, 6α)-N-[3-[1-(phenyl)ethyl]-3-azabicyclo [3.1.0]hex-6-yl]-2-hydroxy-2-cyclohexyl-2-phenylacetamide] are 5.89 nM, 155 nM and 7.89.
Take `O=C(NC1C2CN(CCc3ccc(Cl)cc3)CC21)C(O)(c1ccccc1)C1CCCC1` (stereo not drawn) [Compound No. 17, (1α, 5α, 6α)-N-[3-(4-chlorophenethyl)-3-azabicyclo[3.1.0]hex-6-yl]-2-hydroxy-2-cyclopentyl-2-phenylacetamide]: the results for the Ki on M3 muscarinic receptor and on M2 muscarinic receptor were 79.4 nM and 501 nM, respectively. The compound also yielded a Functional Assay pKB in the experiment on isolated rat bladder of 7.02.
For `O=C(NC1C2CN(Cc3ccccc3)CC21)C(Cl)(c1ccccc1)C1CCCCC1` (stereo not drawn) [Compound No. 115, (1α, 5α, 6α)-N-[3-benzyl-3-azabicyclo[3.1.0]-hex-6-yl]-2-chloro-2-cyclohexyl-2-phenylacetamide], the Ki at M3 muscarinic receptor and on M2 muscarinic receptor was greater than 1000 nM throughout. The Functional Assay pKB in the experiment on isolated rat bladder came to 5.45.
For `O=C(NC1C2CN(Cc3cccs3)CC21)C(O)(c1ccccc1)C1CCCCC1` (stereo not drawn) [Compound No. 2, (1α, 5α, 6α)-N-[3-(2-Thienylmethyl)-3-azabicyclo[3.1.0]hex-6-yl]-2-hydroxy-2-cyclohexyl-2-phenylacetamide], the Ki at M3 muscarinic receptor is 129 nM; on M2 muscarinic receptor, 3160 nM. The compound also gave a Functional Assay pKB in the experiment with isolated rat bladder of 7.52.
On the same counts, the results for `CC(c1ccccc1)N1CC2C(C1)C2NC(=O)C(O)(c1ccccc1)C1CCCC1` (stereo not drawn) [Compound No. 21, (1α, 5α, 6α)-N-[3-(1-phenylethyl)-3-azabicyclo[3.1.0]hex-6-yl]-2-hydroxy-2-cyclopentyl-2-phenylacetamide] are 25.1 nM, 631 nM and 8.2.
Regarding `O=C(N[C@H]1[C@@H]2CN(CCc3ccc(CO)cc3)C[C@@H]21)C(O)(c1ccccc1)C1CCCC1` (stereo partly drawn) [Compound No. 71, (1α, 5α, 6α)-N-[3-(4-hydroxymethylphenethyl)-3-azabicyclo [3.1.0]-hex-6-yl]-2-hydroxy-2-cyclopentyl-2-phenylacetamide], the “Receptor Binding Assay pKi M3” value at M3 muscarinic receptor is reported as 7.37 -log M (pKi, unitless). Also, the “Receptor Binding Assay pKi M2” value at M2 muscarinic receptor is 6.01. The compound also displayed a Functional Assay pKB in the experiment with isolated rat bladder of 6.8.
In the case of `COC(=O)c1ccc(CCN2CC3C(C2)C3NC(=O)C(O)(c2ccccc2)C2CCCC2)cc1` (stereo not drawn) [Compound No. 66, (1α, 5α, 6α)-N-[3-(2-(4-methoxycarbonyl)phenyl)ethyl-3-azabicyclo[3.1.0]hex-6-yl]-2-hydroxy-2-cyclopentyl-2-phenylacetamide], the Ki on M3 muscarinic receptor is 43.7 nM; at M2 muscarinic receptor it was 537 nM. The compound also came in with a Functional Assay pKB with isolated rat bladder of 7.67.
